Here are results for five compounds from PMC3602459 (2013).

For test [1], the system named is tRNA^phe (yeast) (RNA, tRNA) GCGGAUUUAGCUCAGUUGGGAGAGCGCCAGACUGAAGAUCUGGAGGUCCUGUGUUCGAUCCACAGAAUUCGCACCA
The test can be described thus: UV melting, 260 nm. The note with it: 10 mM Na+; citrate-phosphate, pH 7.0; 50 µM tRNA nucleotides; saturating alkaloid; average Tm 50 °C alone; per base.

Test [2] has the same test system. The test can be described thus: ITC, single-site fit. The note with it: 10 mM Na+; citrate-phosphate, pH 7.0, 20 °C; tRNA concentration in nucleotide phosphates; per base. Background: Isothermal titration calorimetry measures the heat released or taken up as one component is titrated into another.
Test [3] has the same test system. The test can be described thus: absorbance titration, Benesi-Hildebrand. The conditions noted are these: 10 mM Na+; citrate-phosphate, pH 7.1, 20 °C; apparent; tRNA in nucleotide phosphates; per base.
The test system is the same in test [4]. Put plainly: fluorescence titration, Benesi-Hildebrand. The conditions noted are these: 10 mM Na+; citrate-phosphate, pH 7.1, 20 °C; apparent; tRNA in nucleotide phosphates; per base.
Test [5] shares this test system. Put plainly: absorbance titration, Scatchard, McGhee-von Hippel cooperative fit. The note with it: 10 mM Na+; citrate-phosphate, pH 7.1, 20 °C; overall cooperative constant; tRNA in nucleotide phosphates; per base.
For test [6] the test system is unchanged. The test can be described thus: fluorescence titration, Scatchard, McGhee-von Hippel cooperative fit. The conditions noted are these: 10 mM Na+; citrate-phosphate, pH 7.1, 20 °C; overall cooperative constant; tRNA in nucleotide phosphates; per base.
For test [7] the test system is unchanged. The test can be described thus: ITC. The note with it: 10 mM Na+; citrate-phosphate, pH 7.0, 20 °C; only background heats, binding negligible.

On to `COc1ccc2cc3[n+](cc2c1OC)CCc1cc2c(cc1-3)OCO2`, for which the ΔTm – broadly, the shift of the melting midpoint relative to a reference – in test [1] is 4.5 °C. Moreover, the Ka in test [2] is reported as 0.86 ± 0.01 × 10^5 M^-1. In addition, the KBH is 114000 M⁻¹ in test [3] and 122000 M⁻¹ in test [4]. In addition, the Kiω was 169000 M⁻¹ in test [5] and 177000 M⁻¹ in test [6].

On to `COc1ccc2cc3[n+](cc2c1OCC(=O)NCCc1ccccc1)CCc1cc2c(cc1-3)OCO2`, for which, in test [1], the ΔTm came to 8.0 °C. Also, the Ka in test [2] is given as 8.20 ± 0.04 × 10^5 M^-1. Further, the KBH was found to be 874000 M⁻¹ in test [3] and 889000 M⁻¹ in test [4]. The Kiω in test [5] was 922000 M⁻¹; in test [6] it was 941000 M⁻¹.

With `COc1ccc2cc3[n+](cc2c1OCC(=O)NCc1ccccc1)CCc1cc2c(cc1-3)OCO2`, the ΔTm in test [1] was 7.0 °C. Moreover, the Ka in test [2] is 7.17 ± 0.03 × 10^5 M^-1. Moreover, the KBH in test [3] was found to be 613000 M⁻¹; in test [4], 644000 M⁻¹. Further, the Kiω came out at 640000 M⁻¹ in test [5] and 658000 M⁻¹ in test [6].

With `COc1ccc2cc3[n+](cc2c1O)CCc1cc2c(cc1-3)OCO2`, the binding result in test [7] is recorded as “weak”. Further, the ΔTm in test [1] came out at 2.0 °C. Moreover, the values for the KBH in test [3] and in test [4] were 4300 M⁻¹ and 4200 M⁻¹, respectively.

On to `COc1ccc2cc3[n+](cc2c1OCC(=O)Nc1ccccc1)CCc1cc2c(cc1-3)OCO2`, for which, in test [1], the ΔTm was determined as 6.5 °C. Besides, the Ka in test [2] is 4.67 ± 0.03 × 10^5 M^-1. The KBH in test [3] came out at 425000 M⁻¹; in test [4] it was 404000 M⁻¹. For the same compound, the Kiω in test [5] worked out at 434000 M⁻¹; in test [6], 427000 M⁻¹.
